This is an account of results in patent US11648222B2, “Use of CYP26-resistant RAR alpha selective agonists in the treatment of cancer” (Io Therapeutics, Inc., priority 2015, dated 2023).

Assay [1] has as its system relapse/refractory MM patients. The settings on record: in combination with BTZ; cited from earlier work.
The subject of assay [2] is OCI-AML 3, Kasumi-1 and APL NB4 cells. As to the kind of experiment: Clonogenic growth of AML cell lines in the presence or absence of stroma. The format is cell-based. The settings on record: for clonogenic growth (CFU) compared to control: off and on stroma, NB4: 10^-7 M IRX5183, 10^-8 M AM80, OCI-AML3, Kasumi-1: 10^-6 M IRX5183, 10^-7 M AM80; for clonogenic growth: presence or absence of stroma. As to the method: The BM stroma, which expresses inducibly high levels of CYP26, metabolically inactivates ATRA and provides a protected environment for AML cancer stem cells. Synthetic, CYP26-resistant RARα agonists, such as IRX5183 and AM80, should be able to bypass stroma-mediated protection of AML cells and differentiate the cancer stem cells resident in the protected environment of bone marrow niche. To test these hypotheses, clonogenic growth experiments were conducted in the non-APL AML cell lines OCI-AML 3 and Kasumi-1 and APL NB4 cells, which were treated with ATRA, IRX5183, and AM80 in the presence or absence of stroma.

Assay [3] relates to FLT3/ITD acute myeloid leukemia (AML) cells. The following applies: recent studies; cited from earlier work.
Assay [4] deals with MM cell lines and MM CD138+ primary cells. Briefly: BTZ sensitivity (clonogenic or cellular recovery) of MM cells after incubation with BM stroma. In kind it is cell-based, human. The following applies: for effect on stroma-induced BTZ resistance: stroma coculture with compound 1 μM 5 days. As for the experimental part:
(§1) Coculture experiments. 24-well plates were coated with 0.1% gelatin in PBS for 30 min at 37° C. The gelatin solution was removed, and the stromal cells were cultured overnight at a density of 5×10^4 cells/well to obtain a confluent monolayer. At that time, MM cell lines or primary MM cells (1×10^5 in 2 ml) were added to the stroma cultures. The stroma cocultures were incubated at 37° C. in RPMI containing 10% FCS, L-glutamine, and P/S, with or without AGN19194310 (1 μM for 5 days), R115866 (1 μM for 5 days), IRX5183 (1 μM for 5 days), or BTZ (2.5 nM for 48 hr).
Mobilization experiments. MM cells were separated from BM stromal cells by gently pipetting several times around the well. Detached cells were centrifuged, resuspended in fresh media, and incubated in a 24-well plate for 1 hr at 37° C. During this short incubation period, contaminating stromal cells attached to the well, while MM cells remained in suspension. MM cells were then recovered by gently pipetting. This protocol was used for qRT-PCR and CFU coculture experiments. The purity achieved using this protocol was confirmed by flow cytometry to be 98%-99% MM cells and less than 2% contaminating stroma.
Clonogenic assays. After treatment, MM cells were collected, washed with PBS, and plated at a density of 5,000 cells/ml in 1 ml of 1.32% methylcellulose supplemented with 30% FBS, 10% BSA, L-glutamine, P/S, and 0.1 mM p-ME. Cells were plated in triplicate in 35-mm culture dishes, incubated at 37° C., and scored for the presence of colonies 14 days later.

Assay [5] concerns MM H929 cell lines and MM CD138+ primary cells. Briefly: qRT-PCR of B cell and PC markers in MM cells with or without BM stroma coculture. In kind it is cell-based, human. The settings on record: for mRNA expression of B cell and PC markers (BCL6, BLIMP1, XBP1s, CHOP): compound 1 μM for 5 days; for expression of differentiation markers by qRT-PCR or flow cytometry: liquid conditions versus BM stroma. As to the method:
Cell cultures. All cell lines were purchased from the American Type Culture Collection. H929, MM1s, and U266 cells were cultured in RPMI 1640 with 10% FCS (Sigma-Aldrich), 2 mM L-glutamine, and 100 μg/ml penicillin-streptomycin (P/S). OP-9 cells were cultured in α-MEM, 20% FCS, L-glutamine, and P/S. Cell lines were authenticated by short-tandem repeat profiling.
Primary MM cells were obtained from patients with newly diagnosed or relapsed MM under an IRB-approved protocol at The Johns Hopkins University. Briefly, mononuclear cells were isolated from fresh BM aspirates by density gradient centrifugation (Ficoll-Paque); CD138+ cells were then selected via magnetic beads and columns and incubated in RPMI 1640, 10% FCS, L-glutamine, and P/S at 37° C.
as §1
(§2) qRT-PCR. Total RNA was extracted using the RNeasy Mini Kit (QIAGEN) according to the manufacturer's instructions. cDNA was synthesized by reverse transcription using the iScript cDNA Synthesis Kit (Bio-Rad). qRT-PCR was performed with iTaq SYBR Green Supermix (Bio-Rad) using sequence specific primers. Gene expression was normalized to GAPDH, and relative quantification was calculated using ΔΔCt. All experiments were performed in duplicate and run on the Bio-Rad CFX96 machine.
A general note: Quantitative PCR measures a nucleic acid by following its amplification.

In the next assay the test system is MM cells. As to the kind of experiment: Surface CD138 expression of MM cells by flow cytometry. The format is cell-based, human. As for the experimental part:
as §1
Flow cytometry. Following treatment, MM cells were collected, washed with PBS, and stained for 15 min at room temperature with phycoerythrin-conjugated (PE-conjugated) anti-CD138. Cells were washed to remove unbound antibody and evaluated in a FACSCalibur system (BD Biosciences). Stromal cells were identified by GFP expression, and viable cells were identified using 7-aminoactinomycin D (7-AAD). To calculate cell numbers, live GFP-cells were normalized to calibration beads.

The next assay deals with BM stromal cells. As to the kind of experiment: Effect of soluble factors on CYP26A1 expression in BM stromal cells. The format is cell-based. The settings on record: soluble factor added to BM stromal cells. As for the experimental part: as §2
Assay [6] has as its system BM stromal cells cocultured with MM cells. Briefly: Stromal Cyp26a1 upregulation by MM cells in coculture. The format is cell-based, mouse. The settings on record: SMO inhibitor in coculture. As to the method: as §1, §2
To confirm the role of paracrine Hedgehog on this interaction, smoothened (Smo), a membrane receptor that transduces SHH signaling, was knocked out at the genomic level in the mesenchymal compartment. For this, BM mesenchymal cells derived from Smo^fl/fl mice were transduced with a retroviral vector encoding Cre recombinase (Smo-KO stroma). […]

The subject of assay [7] is H929 luciferase+ (Luc+) cells. Briefly: Systemic MM xenograft, bioluminescence imaging. In kind it is in vivo, NSG mice. The settings on record: 4 weeks; for tumor burden (bioluminescence): monotherapy, BTZ 0.5 mg/kg i.p. twice weekly or IRX 10 mg/kg once daily. As to the method:
For the systemic MM model, 2×10^6 Luc+/GFP+H929 cells were injected via the tail vein into 16-week-old male NSG mice. After engraftment, as determined by an exponential increase in bioluminescence, mice were treated with BTZ (0.5 mg/kg i.p.) twice weekly and with IRX (10 mg/kg) once daily. Tumor burden was assessed by bioluminescence, as above.
To test whether retinoids can enhance BTZ activity in MM, a systemic MM xenograft was developed by injecting 2×10^6 H929 luciferase+(Luc+) cells via the tail vein of nonobese, diabetic, severe combined immunodeficiency IL-2 receptor γ-KO (NSG) mice. The animals were randomized to receive IRX, BTZ, or a combination of both, and disease burden was followed weekly by bioluminescence imaging (FIG. 4).

For assay [8], the system named is H929 Luc+ cells with WT or Smo-KO stroma. As to the kind of experiment: Subcutaneous xenograft model of MM-niche interactions (WT or Smo-KO stroma). The format is in vivo, NSG mice. As for the experimental part: Mouse xenografts. 1×10^6 H929 Luc+ cells and 1×10^6 mouse BM stromal cells were resuspended in 100 μl Matrigel, diluted with RPMI (1:1), and injected subcutaneously into 16-week-old male NSG mice. After 4 days, treatment with BTZ (0.5 mg/kg i.p. twice weekly) and IRX (10 mg/kg i.p. daily) was initiated. Tumor burden was assessed by bioluminescence using the In Vivo Imaging System (PerkinElmer). For imaging, mice were exposed to 120 mg/kg D-luciferin via intraperitoneal injection […] before imaging and were anesthetized using isoflurane. Images were analyzed with Living Image Software, version 2.5 (PerkinElmer), and data were quantified as photons/second.
To study to what extent an RA-low environment created by the BM stroma and enhanced by MM cells via paracrine Hedgehog signaling contributes to BTZ resistance, a xenograft model of MM-niche interactions was developed. Each mouse carried 2 subcutaneous tumors consisting of H929 Luc+ cells and either WT (anterior tumors) or Smo-KO stroma (posterior tumors). Mice were treated with IRX (10 mg/kg i.p. daily), BTZ (0.5 mg/kg i.p. twice weekly), or a combination of both. The growth of tumors bearing WT or Smo-KO stroma was not different in untreated or IRX-treated groups (FIGS. 7 and 8). […] While some tumors in the treatment group receiving combined IRX and BTZ appeared to have regressed completely, even after anatomical study, this was not the case for all the mice in this group.

[9] abbreviates: BM stromal cell cocultures incubated with compound.

Regarding `c1cc(CN2CCCNCCNCCCNCC2)ccc1CN1CCCNCCNCCCNCC1` [plerixafor], the response rates entry in assay [1] is recorded as “improved response rates”.
As for `CC1(C)CCC(C)(C)c2cc(NC(=O)c3ccc(C(=O)O)cc3)ccc21` [AM80, 4-[(5,6,7,8-tetrahydro-5,5,8,8-tetramethyl-2-naphthalenyl)carbamoyl]benzoic acid], in assay [2], the “clonogenic growth (CFU) compared to control” value is recorded as “decrease in clonogenic growth compared to control” and the clonogenic growth entry is recorded as “inhibited clonogenic growth in the presence of stroma but not as effectively as IRX5183”. For the same compound, the “differentiation and sensitivity to FLT3 inhibitors” value in [3] is “differentiates FMS-like tyrosine kinase 3/internal tandem duplication (FLT3/ITD) acute myeloid leukemia (AML) cells and increase their sensitivity to FLT3 inhibitors”.
With `CCc1ccc(C2=CC(C)(C)Sc3ccc(C#Cc4ccc(C(=O)O)cc4)cc32)cc1` [AGN194310], in assay [4] (absence of stroma, compound 1 μM 5 days, then BTZ), the “effect on BTZ sensitivity” value is reported as “decreasing BTZ sensitivity”. Moreover, the “mRNA expression of B cell and PC markers (BCL6, BLIMP1, XBP1s, CHOP)” value (from here on “mRNA expression of B cell and PC markers”) in assay [5] (absence of stroma (Liquid)) is “mimicked the changes induced by BM stromal cells”. In the assay on MM cells (absence of stroma, incubation with compound), the “surface CD138 expression” value is recorded as “markedly decreased”.
For the compound “IL-6: cytokine, soluble factor produced by MM cells”, the “upregulation of CYP26A1 on BM stromal cells” value in the assay on BM stromal cells is on record as “no significant effects”.
Turning to `CCC(CC)C(c1ccc(Nc2nc3ccccc3s2)cc1)n1cncn1` (centres unmarked) [R115866], the “effect on BTZ resistance after separation from BM stroma” value in assay [4] (H929 cells, coculture treated with compound 1 μM before separation) is listed as “prevented the development of a BTZ-resistant phenotype”. Also, in assay [4] (then BTZ), the “effect on stroma-induced BTZ resistance” value is given as “overcome”. Besides, the “expression of differentiation markers by qRT-PCR or flow cytometry” value in assay [5] is recorded as “did not significantly affect the expression of differentiation markers”. Besides, the “mRNA expression of B cell and PC markers” value in [5] (stroma cocultures) is “restored all markers to levels comparable to those of liquid control conditions”. The “surface CD138 expression” value with MM cells (setting [9]) is listed as “restored CD138 expression”.
On to `CC1=C2C[C@H]3[C@@H](CC=C4C[C@@H](O)CC[C@@]43C)[C@@H]2CC[C@]12O[C@@H]1C[C@H](C)CN[C@H]1[C@H]2C` [cyclopamine], for which the “stromal Cyp26a1 upregulation by MM cells” value in [6] was “partially overcame stromal Cyp26a1 upregulation by MM cells”.
With `CC(C)C[C@H](NC(=O)[C@H](Cc1ccccc1)NC(=O)c1cnccn1)B(O)O` [BTZ, bortezomib], the “tumor burden (bioluminescence)” value in assay [7] is on record as “decreased tumor growth compared with untreated controls”. For the same compound, the “BTZ resistance after separation from BM stroma” value in assay [4] (H929 cells, 5-day stroma coculture, fresh media 0 to 48 hr, then BTZ) is on record as “remained partially resistant to BTZ for up to 48 hr following detachment from stroma”. Moreover, the “sensitivity of MM cells to BTZ” value in [4] (Smo-KO stroma compared with WT stroma) is “increased sensitivity to BTZ”; in assay [4] (absence of BM stroma (liquid), BTZ 2.5 nM 48 hr), “highly sensitive to BTZ”; in assay [4] (after 5 days incubation with BM stroma, BTZ 2.5 nM 48 hr), “incubation with BM stroma induced BTZ resistance”. The “tumor response (bioluminescence)” value is “significant response” in assay [8] (tumors carrying Smo-KO stroma, BTZ 0.5 mg/kg i.p. twice weekly) and “refractory to BTZ treatment” in assay [8] (tumors with WT stroma, BTZ 0.5 mg/kg i.p. twice weekly).
As to `CC1(C)CCC(C)(C)c2c1cc(C(=O)Nc1cc(F)c(C(=O)O)c(F)c1)c(O)c2Cl` [IRX5183], the “disease burden (bioluminescence)” value in [7] (IRX 10 mg/kg daily combined with BTZ 0.5 mg/kg twice weekly) is listed as “significant (P<0.01) decrease in disease burden”. The “tumor burden (bioluminescence)” value in [7] is reported as “decrease in tumor burden compared with untreated mice”. In addition, in assay [4] (then BTZ), the “effect on stroma-induced BTZ resistance” value was “overcome”. The “growth of tumors bearing WT versus Smo-KO stroma” value in assay [8] (IRX 10 mg/kg i.p. daily alone) is recorded as “not different”. Also, the “tumor response (bioluminescence)” value in assay [8] (combination of IRX 10 mg/kg daily and BTZ 0.5 mg/kg twice weekly, WT and Smo-KO stroma) is “significant and equivalent response, regardless of the phenotype of the stromal compartment”. In [5], the “expression of differentiation markers by qRT-PCR or flow cytometry” value was “induced comparable changes, irrespective of the presence or absence of BM stroma”. Also, the “mRNA expression of B cell and PC markers” value in [5] (stroma cocultures) is “restored all markers to levels comparable to those of liquid control conditions”. In [2], the “clonogenic growth (CFU) compared to control” value is reported as “decrease in clonogenic growth compared to control” and the clonogenic growth result is “inhibited clonogenic growth to a similar extent in the presence or absence of stroma”. Further, in the assay with MM cells (setting [9]), the “surface CD138 expression” value was “restored CD138 expression”.
Turning to TNF-α, in the assay with BM stromal cells, the “upregulation of CYP26A1 on BM stromal cells” value is given as “no significant effects”.
